Experimental data taken from patent US12410411B2, “Biocatalytic techniques” (HYPHA DISCOVERY LIMITED, priority 2019, dated 2025).

What was measured:
P450SeuC10 [1] = experiment: Whole-cell biotransformation in E. coli expressing P450SeuC10, ferredoxinSeuF08 and ferredoxin reductaseSCF15A (Example 4B); type: cell-based, Streptomyces eurythermus NRRL 2539; settings: for inferred yield of oxidised product (UPLC-MS): product formed from parent substrate dosed at 100 mg/L, E. coli whole cells, 100 μL screening scale; for Overall % conversion to oxidised products: SeuC10, E. coli whole cells, 0.1 mg/ml substrate, 27° C., pH 7.4
Text: Cell pellets were provided as in Example 2. […] Reactions were stopped and analysed as in Example 4.

P450SeuC10 [2] = experiment: Oxidase activity/spectrum testing with lyophilised material containing P450SeuC10, ferredoxinSeuF08 and ferredoxin reductaseSCF15A (Example 4A); type: biochemical, Streptomyces eurythermus NRRL 2539; settings: for inferred yield of oxidised product (UPLC-MS): product formed from parent substrate dosed at 100 mg/L, lyophilised material, 100 μL screening scale; for Overall % conversion to oxidised products: SeuC10, lyophilised material, 0.1 mg/ml substrate, 27° C., 16-20 hours, pH 8.0, UPLC-MS
Protocol: Suspended cell pellets were provided as described in Example 2, containing recombinant P450, ferredoxin and ferredoxin reductase in 100 mM potassium phosphate buffer pH 8.0, 5 mM MgCl2, 5 mM TCEP, and 1 mM PMSF in a ratio of 3.0 ml of buffer per 1 g of cells. Lysed cells were produced by high pressure disruption using three cycles of 30 kpsi. Lysed material was centrifuged at 38,000×g for 40 minutes (4° C.) and the supernatant was sterilized by passing through a 0.2 micron filter to provide the cell-free enzyme preparation containing recombinant P450, ferredoxin and ferredoxin reductase.
(§1) Lyophilised material of recombinant P450, ferredoxin and ferredoxin reductase proteins was made as described in Example 3 and reconstituted in high purity water to the original volume. Biocatalysis was performed shaking at 27° C. in the following conditions: 100 mM potassium phosphate pH 8.0, 5 mM MgCl2 (both present in the reconstituted enzyme preparation) and 0.1 mg/ml substrate compound such as carbamazepine, bosentan, diclofenac, meloxicam, tivantinib or ambroxide.
(§2) Concentrations of P450, ferredoxin and ferredoxin reductase were as extracted (Example 3). Reactions were initiated by addition of 10× stock of cofactor mixture (50 mM G6P, 10 mM NADP, 10 UN/ml G6PDH) to provide a final volume of e.g., 10 μL to 90 μL for 100 μL total reaction volumes. After 16-20 hours, reactions were extracted with an equal volume of acetonitrile, centrifuged to remove precipitated proteins and conversion assessed by UPLC-MS analysis.
UPLC data were obtained as follows:
Column: Acquity UPLC BEH Shield RP18 1.7 μm 2.1 mm i.d. 50 mm length
Solvents: H2O, B: Acetonitrile, both with 0.1% Formic acid
Detector: Waters Acquity UPLC PDA (UV-Vis detection) and Waters Acquity UPLC QDA (MS)

SriC20 = experiment: Substrate testing with lyophilised material containing SriC20 (Example 5, method of Example 4A); type: biochemical, Streptomyces rimosus NRRL 2234; settings: 0.1 mg/ml substrate
Protocol: as §1, §2
(§3) Other cytochrome P450 enzymes were expressed as described above, and their activities tested against the same substrates as P450SeuC10 using the methods described in Example 4. The other P450s tested were: P450AluC09 from Amycolatopsis lurida NRRL 2430 (SEQ ID NO: 13, see WO 2018/091885); SriC12 from Streptomyces rimosus NRRL 2234 (SEQ ID NO: 14, see WO 2020/109776); SriC20 from Streptomyces rimosus NRRL 2234 (SEQ ID NO: 15, see WO 2020/109776); SriC22 from Streptomyces rimosus NRRL 2234 (SEQ ID NO: 16, see WO 2020/109776); and CYP107L from Streptomyces platensis DSM 40041 (SEQ ID NO: 17, see Worsch et al., Biotechnology and Bioengineering 115: 2156-2166, 2018).

SriC22 = experiment: Substrate testing with lyophilised material containing SriC22 (Example 5, method of Example 4A); type: biochemical, Streptomyces rimosus NRRL 2234; settings: 0.1 mg/ml substrate
Protocol: as §1, §2, §3

P450AluC09 [3] = experiment: Substrate testing with lyophilised material containing P450AluC09 (Example 5, method of Example 4A); type: biochemical, Amycolatopsis lurida NRRL 2430; settings: AluC09, lyophilised material, 0.1 mg/ml substrate
Protocol: as §1, §2, §3

SriC12 = experiment: Substrate testing with lyophilised material containing SriC12 (Example 5, method of Example 4A); type: biochemical, Streptomyces rimosus NRRL 2234; settings: 0.1 mg/ml substrate
Protocol: as §1, §2, §3

P450AluC09 [4] = experiment: Substrate testing with whole cells containing P450AluC09 (Example 5, method of Example 4B); type: cell-based, Amycolatopsis lurida NRRL 2430; settings: AluC09, whole cells, 0.1 mg/ml substrate
Protocol: Cell pellets were provided as in Example 2. The cell pellets were defrosted, washed with 0.85% NaCl buffer and centrifuged at 4,000 RCF, 30 minutes at 4° C. The supernatant was discarded and the pellet was flash frozen in liquid nitrogen. The pellet was allowed to defrost again and resuspended in 40 mL of buffer containing 50 mM potassium phosphate, pH 7.4, 5 mM MgCl2 and 100 mM glucose. Biocatalysis was performed shaking at 27° C. with 0.1 mg/ml substrate compound such as carbamazepine, bosentan, diclofenac, meloxicam, tivantinib, ambroxide or others as shown in Table 2. Reactions were stopped and analysed as in Example 4.
as §3

Row | Structure (SMILES) | Overall % conversion to oxidised products (SriC20) | Overall % conversion to oxidised products (SriC22) | Overall % conversion to oxidised products (P450AluC09 [3]) | Overall % conversion to oxidised products (P450SeuC10 [2]) | Overall % conversion to oxidised products (SriC12) | Overall % conversion to oxidised products (P450SeuC10 [1]) | Overall % conversion to oxidised products (P450AluC09 [4]) | further results
1 | O=C(O)Cc1ccccc1Nc1c(Cl)cc(O)cc1Cl [4′-hydroxydiclofenac] | – | – | – | – | – | – | – | inferred yield of oxidised product (UPLC-MS) (P450SeuC10 [1]): 73.4%
2 | O=C(O)Cc1cc(O)ccc1Nc1c(Cl)cccc1Cl [5-hydroxydiclofenac] | – | – | – | – | – | – | – | inferred yield of oxidised product (UPLC-MS) (P450SeuC10 [1]): 19.4%
3 | CN1C(C(=O)Nc2ncc(C(=O)O)s2)=C(O)c2ccccc2S1(=O)=O [5′-carboxylmeloxicam] | – | – | – | – | – | – | – | inferred yield of oxidised product (UPLC-MS) (P450SeuC10 [2]): 5.3%
4 | CN1C(C(=O)Nc2ncc(CO)s2)=C(O)c2ccccc2S1(=O)=O [5′-hydroxymethylmeloxicam] | – | – | – | – | – | – | – | inferred yield of oxidised product (UPLC-MS) (P450SeuC10 [2]): 28.4%
5 | CC1(C)CCC[C@]2(C)[C@H]3CCO[C@]3(C)CC[C@@H]12 [Ambroxide] | 0% | 0% | 0% | 72.8% | 0% | – | – | –
6 | Cc1ccc(-n2nc(C(C)(C)C)cc2NC(=O)Nc2ccc(OCCN3CCOCC3)c3ccccc23)cc1 [BIRB796] | – | – | – | – | – | 19.3% | 5.2% | –
7 | COc1ccccc1Oc1c(NS(=O)(=O)c2ccc(C(C)(C)C)cc2)nc(-c2ncccn2)nc1OCCO [Bosentan] | – | – | – | – | – | 87.1% | 100% | –
8 | CC(C)(C)[C@H]1CC[C@H](CC2=C(O)C(=O)c3ccccc3C2=O)CC1 [Buparvaquone] | – | – | – | – | – | 23.4% | 48.8% | –
9 | NC(=O)N1c2ccccc2C=Cc2ccccc21 [Carbamazepine] | 0% | 0% | 0% | 49.2% | 3.2% | – | – | –
10 | O=C(O)Cc1ccccc1Nc1c(Cl)cccc1Cl [Diclofenac] | 0% | 0.9% | 89.9% | 98.3% | 33.9% | – | – | –
11 | C/C(=C\c1csc(C)n1)[C@@H]1C[C@@H]2O[C@]2(C)CCC[C@H](C)[C@H](O)[C@@H](C)C(=O)C(C)(C)[C@@H](O)CC(=O)O1 [Epothilone B] | 0% | 0% | 46% | 35.1% | 2% | – | – | –
12 | CC(C)(C)c1ccc(S(=O)(=O)Nc2nc(-c3ncccn3)nc(OCCO)c2Oc2ccccc2O)cc1 [O-desmethylbosentan] | – | – | – | – | – | – | – | inferred yield of oxidised product (UPLC-MS) (P450SeuC10 [1]): 3.4%
13 | CCCCCCCCCCCCCCCC(=O)O [Palmitic acid] | 0% | 0% | 28.5% | 70.2% | 35.5% | – | – | –
14 | CCC[C@H](N[C@@H](C)C(=O)N1[C@H](C(=O)O)C[C@@H]2CCCC[C@@H]21)C(=O)OCC [Perindopril] | – | – | – | – | – | 14.4% | 0% | –
15 | CC(C)c1nc(CN(C)C(=O)N[C@H](C(=O)N[C@@H](Cc2ccccc2)C[C@H](O)[C@H](Cc2ccccc2)NC(=O)OCc2cncs2)C(C)C)cs1 [Ritonavir] | – | – | – | – | – | 21.6% | 86.3% | –
16 | N#CC[C@H](C1CCCC1)n1cc(-c2ncnc3[nH]ccc23)cn1 [Ruxolitinib] | – | – | – | – | – | 38.6% | 34.3% | –
17 | CCCCNC(=O)NS(=O)(=O)c1ccc(C)cc1 [Tolbutamide] | 0% | 0% | 0% | 21% | 34% | – | – | –
18 | Fc1ccc(C(OCCN2CCN(CCCc3ccccc3)CC2)c2ccc(F)cc2)cc1 [Vanoxerine] | – | – | – | – | – | 26.5% | 0% | –
19 | NC(=O)N1c2ccccc2C2OC2c2ccccc21 (stereo not drawn) [carbamazepine-10,11-epoxide] | – | – | – | – | – | – | – | inferred yield of oxidised product (UPLC-MS) (P450SeuC10 [2]): 49%
20 | COc1ccccc1Oc1c(NS(=O)(=O)c2ccc(C(C)(C)CO)cc2)nc(-c2ncccn2)nc1OCCO [hydroxy-bosentan] | – | – | – | – | – | – | – | inferred yield of oxidised product (UPLC-MS) (P450SeuC10 [1]): 81%
